Several values for one entry are separate records, joined by “and”; a condition that tells them apart may be missing. Equal entries are not always repeated. ± gives the expanded uncertainty stated by the source.
Test: wn = mass fraction of the nth substance listed
Conditions: Capillary rise

FC(C(F)(F)F)C(F)(F)F [1,1,1,2,3,3,3-heptafluoropropane] + FCF
Conditions	surface tension liquid-gas
252.66 K, w2 = 0.3988	12.74 ± 0.31 mN/m and 12.77 ± 0.31 mN/m
252.82 K, w2 = 0.3003	12.41 ± 0.3 mN/m
254.68 K, w2 = 0.3983	12.35 ± 0.31 mN/m and 12.37 ± 0.31 mN/m
254.83 K, w2 = 0.544	12.71 ± 0.31 mN/m
255.1 K, w2 = 0.2998	12.14 ± 0.31 mN/m and 12.13 ± 0.31 mN/m
256.92 K, w2 = 0.354	11.85 ± 0.31 mN/m
257.09 K, w2 = 0.5434	12.37 ± 0.31 mN/m and 12.38 ± 0.31 mN/m
257.1 K, w2 = 0.2993	11.77 ± 0.31 mN/m and 11.79 ± 0.31 mN/m
257.1 K, w2 = 0.3977	12.02 ± 0.31 mN/m and 12.03 ± 0.31 mN/m
258.83 K, w2 = 0.5429	11.97 ± 0.31 mN/m
258.84 K, w2 = 0.7282	12.63 ± 0.31 mN/m and 12.65 ± 0.31 mN/m
258.88 K, w2 = 0.3972	11.74 ± 0.3 mN/m
259 K, w2 = 0.2988	11.52 ± 0.3 mN/m and 11.51 ± 0.3 mN/m
260.89 K, w2 = 0.3528	11.26 ± 0.3 mN/m and 11.25 ± 0.3 mN/m
260.99 K, w2 = 0.5423	11.65 ± 0.3 mN/m
261.01 K, w2 = 0.2982	11.3 ± 0.31 mN/m
261.05 K, w2 = 0.3966	11.49 ± 0.31 mN/m and 11.48 ± 0.31 mN/m
262.75 K, w2 = 0.2977	11 ± 0.31 mN/m and 10.97 ± 0.31 mN/m
262.79 K, w2 = 0.3521	11.06 ± 0.3 mN/m
262.8 K, w2 = 0.7274	12.12 ± 0.31 mN/m and 12.08 ± 0.31 mN/m
262.85 K, w2 = 0.3961	11.14 ± 0.3 mN/m
262.96 K, w2 = 0.5417	11.34 ± 0.31 mN/m
262.98 K, w2 = 0.3961	11.14 ± 0.3 mN/m and 11.18 ± 0.31 mN/m
264.66 K, w2 = 0.727	11.63 ± 0.31 mN/m and 11.62 ± 0.31 mN/m
264.68 K, w2 = 0.5412	11.11 ± 0.31 mN/m and 11.09 ± 0.31 mN/m
264.87 K, w2 = 0.3955	10.9 ± 0.31 mN/m and 10.92 ± 0.31 mN/m
264.88 K, w2 = 0.3514	10.71 ± 0.31 mN/m and 10.75 ± 0.31 mN/m
264.96 K, w2 = 0.297	10.65 ± 0.31 mN/m
266.51 K, w2 = 0.2966	10.42 ± 0.3 mN/m and 10.44 ± 0.3 mN/m
266.75 K, w2 = 0.5405	10.75 ± 0.3 mN/m and 10.74 ± 0.3 mN/m
266.88 K, w2 = 0.3507	10.44 ± 0.3 mN/m and 10.47 ± 0.3 mN/m
267.04 K, w2 = 0.3948	10.5 ± 0.31 mN/m and 10.52 ± 0.31 mN/m
268.37 K, w2 = 0.296	10.2 ± 0.3 mN/m and 10.23 ± 0.3 mN/m
268.37 K, w2 = 0.54	10.53 ± 0.31 mN/m and 10.52 ± 0.31 mN/m
268.63 K, w2 = 0.7261	11.05 ± 0.31 mN/m and 11 ± 0.31 mN/m
268.72 K, w2 = 0.3943	10.33 ± 0.3 mN/m
268.79 K, w2 = 0.35	10.2 ± 0.3 mN/m and 10.23 ± 0.3 mN/m
270.7 K, w2 = 0.3936	10.06 ± 0.31 mN/m and 10.03 ± 0.31 mN/m
270.78 K, w2 = 0.3493	9.92 ± 0.3 mN/m
270.78 K, w2 = 0.5392	10.1 ± 0.31 mN/m
270.81 K, w2 = 0.2952	9.83 ± 0.3 mN/m and 9.86 ± 0.3 mN/m
272.17 K, w2 = 0.7252	10.38 ± 0.3 mN/m
272.9 K, w2 = 0.2945	9.56 ± 0.3 mN/m and 9.6 ± 0.3 mN/m
272.91 K, w2 = 0.7249	10.28 ± 0.31 mN/m
273.15 K, w2 = 0.3928	9.64 ± 0.31 mN/m and 9.66 ± 0.31 mN/m
273.15 K, w2 = 0.5383	9.73 ± 0.3 mN/m
273.6 K, w2 = 0.3482	9.51 ± 0.31 mN/m
275.16 K, w2 = 0.2937	9.29 ± 0.3 mN/m and 9.31 ± 0.3 mN/m
275.3 K, w2 = 0.392	9.26 ± 0.3 mN/m and 9.29 ± 0.3 mN/m
275.48 K, w2 = 0.5375	9.44 ± 0.3 mN/m
275.5 K, w2 = 0.3474	9.19 ± 0.3 mN/m and 9.23 ± 0.3 mN/m
275.5 K, w2 = 0.7242	9.87 ± 0.3 mN/m and 9.89 ± 0.3 mN/m
276.85 K, w2 = 0.2931	9.01 ± 0.3 mN/m and 9.05 ± 0.3 mN/m
277.27 K, w2 = 0.3913	9.02 ± 0.3 mN/m and 9.06 ± 0.3 mN/m
277.3 K, w2 = 0.7237	9.66 ± 0.3 mN/m and 9.65 ± 0.3 mN/m
277.39 K, w2 = 0.3466	8.95 ± 0.3 mN/m and 8.98 ± 0.3 mN/m
277.43 K, w2 = 0.5367	9.29 ± 0.3 mN/m
279.39 K, w2 = 0.7231	9.32 ± 0.31 mN/m and 9.34 ± 0.31 mN/m
279.42 K, w2 = 0.2921	8.71 ± 0.3 mN/m
279.43 K, w2 = 0.5359	8.92 ± 0.31 mN/m
279.46 K, w2 = 0.3457	8.67 ± 0.3 mN/m
279.6 K, w2 = 0.3904	8.74 ± 0.3 mN/m and 8.76 ± 0.3 mN/m
281.21 K, w2 = 0.3898	8.45 ± 0.3 mN/m and 8.46 ± 0.3 mN/m
281.3 K, w2 = 0.5351	8.65 ± 0.3 mN/m and 8.64 ± 0.3 mN/m
281.45 K, w2 = 0.3448	8.4 ± 0.3 mN/m and 8.41 ± 0.3 mN/m
281.51 K, w2 = 0.2913	8.39 ± 0.3 mN/m
281.54 K, w2 = 0.7224	8.9 ± 0.31 mN/m and 8.93 ± 0.31 mN/m
283.11 K, w2 = 0.2907	8.2 ± 0.3 mN/m
283.17 K, w2 = 0.389	8.23 ± 0.3 mN/m
283.29 K, w2 = 0.7219	8.59 ± 0.3 mN/m and 8.61 ± 0.3 mN/m
283.3 K, w2 = 0.5342	8.39 ± 0.31 mN/m and 8.4 ± 0.31 mN/m
283.49 K, w2 = 0.3439	8.13 ± 0.3 mN/m
284.67 K, w2 = 0.5336	8.04 ± 0.3 mN/m and 8.07 ± 0.3 mN/m
285.18 K, w2 = 0.7212	8.37 ± 0.3 mN/m
285.19 K, w2 = 0.3882	7.93 ± 0.3 mN/m and 7.99 ± 0.3 mN/m
285.24 K, w2 = 0.2898	7.93 ± 0.3 mN/m and 7.9 ± 0.3 mN/m
285.46 K, w2 = 0.343	7.94 ± 0.3 mN/m and 7.95 ± 0.3 mN/m
286.62 K, w2 = 0.3876	7.79 ± 0.3 mN/m
286.86 K, w2 = 0.2891	7.75 ± 0.3 mN/m and 7.71 ± 0.3 mN/m
287.47 K, w2 = 0.342	7.57 ± 0.3 mN/m
287.63 K, w2 = 0.5322	7.69 ± 0.3 mN/m and 7.73 ± 0.3 mN/m
289.31 K, w2 = 0.5314	7.44 ± 0.3 mN/m and 7.45 ± 0.3 mN/m
289.33 K, w2 = 0.7197	7.78 ± 0.31 mN/m
289.37 K, w2 = 0.288	7.41 ± 0.31 mN/m
289.37 K, w2 = 0.3411	7.34 ± 0.3 mN/m and 7.38 ± 0.3 mN/m
289.42 K, w2 = 0.3863	7.45 ± 0.3 mN/m
289.68 K, w2 = 0.2879	7.29 ± 0.31 mN/m
289.89 K, w2 = 0.7195	7.55 ± 0.3 mN/m and 7.53 ± 0.3 mN/m
290.16 K, w2 = 0.386	7.2 ± 0.31 mN/m
291.25 K, w2 = 0.2872	7.12 ± 0.31 mN/m
291.47 K, w2 = 0.34	7.14 ± 0.3 mN/m
291.47 K, w2 = 0.5304	7.13 ± 0.31 mN/m and 7.18 ± 0.3 mN/m
291.5 K, w2 = 0.3854	7.05 ± 0.31 mN/m and 7.03 ± 0.3 mN/m
291.53 K, w2 = 0.2871	7.07 ± 0.31 mN/m and 7.05 ± 0.31 mN/m
291.66 K, w2 = 0.3853	7.07 ± 0.31 mN/m and 7.11 ± 0.3 mN/m
291.67 K, w2 = 0.5303	7.18 ± 0.31 mN/m and 7.16 ± 0.31 mN/m
291.93 K, w2 = 0.7187	7.33 ± 0.3 mN/m and 7.35 ± 0.3 mN/m
293.1 K, w2 = 0.2864	6.87 ± 0.3 mN/m
293.2 K, w2 = 0.3391	6.83 ± 0.3 mN/m and 6.87 ± 0.3 mN/m
293.46 K, w2 = 0.2862	6.81 ± 0.3 mN/m and 6.79 ± 0.31 mN/m
293.53 K, w2 = 0.5293	6.9 ± 0.3 mN/m
293.53 K, w2 = 0.7181	7.06 ± 0.3 mN/m and 7.09 ± 0.3 mN/m
293.8 K, w2 = 0.3843	6.67 ± 0.3 mN/m and 6.69 ± 0.3 mN/m

From the NIST ThermoML archive (doi:10.1021/je049743g)
